The test system of one test is Dunaliella parva. The experiment in a line: Activity against Dunaliella parva (minimum inhibitory concentration, twofold serial dilution). As to conditions: 168 h, read-out: MIC (Minimum Inhibitory Concentration). In kind it is cell-based. As for the experimental part:
Tests were conducted to determine the toxicity of the marine antifouling agents of the present invention to Dunaliella. Dunaliella are indicative of soft fouling organisms.
The effectiveness of the marine antifouling agents of the present invention and 3-iodopropargyl N-butyl carbamate (Comparative) against Dunaliella parva were determined by a twofold serial dilution procedure which determined the Minimum Inhibitory Concentration ("MIC") of test compound required to inhibit the growth of an algal inoculum. […]
Cultures were grown in 50 mL of medium contained in 250 mL baffle flasks with silicone sponge closures (Bellco Glass, Vineland, N.J., #2004-00004, 28 mm), on a rotary shaker under constant cool white illumination. […] The culture was standardized to an absorbance of 0.1 at 490 nm by addition of fresh medium. […]
Solutions of test compound at 40x the highest concentration to be tested were prepared in an appropriate solvent. […] At the end of that time, the plates were examined for growth, as evidenced by easily visible green color, using a mirrored microplate reader.
Results were recorded as the median of the three replicate results and are reported below as the minimum concentration to inhibit growth (MIC).

The subject of another test is Artemia. The experiment in a line: Toxicity to Artemia (LC100 of nauplii). In kind it is in vivo, Artemia satlina. Particulars: 24 Hours, 25° C. As for the experimental part:
Tests were conducted to determine the toxicity of the marine antifouling agents of the present invention to Artemia. Artemia are indicative of hard fouling organisms.
Substitute ocean water was prepared following ASTM Method D 1141-90. The water was sterilized by filtration through a 0.22 micron cellulose acetate membrane filter. San Francisco Bay Brand® (San Francisco Bay Brand, Inc., Newark, Calif.) Artemia satlina cysts were purchased from a local aquarium supply store. The cysts were hatched in a 250 mL Erlenmeyer flask. The Artemia cysts (0.2 g) were weighed into a sterilized flask. One hundred mL of sterile ASTM sea water was added to the flask. The flask was placed on an orbital shaker set at approximately 150 rotations per minute and 28° C. After 24 hours, the contents of the flask were poured into a separatory funnel. The egg shells were separated from the Artemia nauplii (larvae), as the shells floated to the top. The nauplii were returned to the flask for another 24 hours shaking. The inoculum was prepared by pouring the nauplii into a crystallizing dish 48 hours after the cysts were originally placed on the shaker. […] The number of nauplii in 3 to 4 wells was counted under a microscope. […]
Plates were read under a low magnification microscope 24 and 48 hours after the nauplii were added to the plate. […]

Molecules are shown by their SMILES. Values after ≈ are worked out from the molar mass of the structure shown. Where two headings read alike, the source gives them in different places.

Turning to `O=C(C(=O)c1ccccc1)c1ccccc1` [R=R^1 =H], in the test with Dunaliella parva, the MIC was found to be 0.6 µg/mL (≈ 2.85 µM). Besides, the “Artemia LC100 (highest dilution in which all of the nauplii are dead)” value in the test on Artemia was determined as 12.5 ppm.

Consider `CCCCNC(=O)OCC#CI` [Comparative, 3-iodopropargyl N-butyl carbamate], for which the MIC in the test with Dunaliella parva (23° C., one week incubation, median of three replicates) amounted to 6.2 µg/mL (≈ 22.1 µM). For the same molecule, the “Artemia LC100 (highest dilution in which all of the nauplii are dead)” value in the test with Artemia worked out at 25 ppm.
